Assay results as given in ChEMBL document CHEMBL4261592, “Antiplasmodial flavanones and a stilbene from Carpha glomerata” (Bioorg Med Chem Lett, 2018).

The compounds below were run on Plasmodium falciparum (assay: Antiplasmodial activity against ring-stage chloroquine-resistant Plasmodium falciparum Dd2 assessed as reduction in parasite viability after 72 hrs by SYBR Green I dye-based assay). Conditions: Dd2, 72 h.
Assay type: functional, organism-based

With CC(C)=CCc1c(O)cc(O)c2c1O[C@H](c1ccc(O)cc1)CC2=O as the compound, how does the IC50 read?
Its IC50 is 6.7 µM.

How did the IC50 turn out when COc1c(O)cc([C@@H]2CC(=O)c3c(O)cc(O)c(CC=C(C)C)c3O2)cc1O was run?
Its IC50 is 5.2 µM.

How did the IC50 turn out when COc1cc2c(c(O)c1C)C(=O)C[C@@H](c1cc(O)c(OC)c(O)c1)O2 was run?
Its IC50 is greater than 10 µM.

How did the IC50 turn out when CC(C)(O)CCc1c(O)cc(O)c2c1O[C@H](c1ccc(O)cc1)CC2=O was run?
Its IC50 is 3.4 µM.

With COc1c(O)cc([C@@H]2CC(=O)c3c(O)c(C)c(O)c(C)c3O2)cc1O as the compound, how does the IC50 read?
Its IC50 is greater than 10 µM.

How did the IC50 turn out when COc1c(O)ccc(/C=C/c2cc(O)cc(O)c2)c1CC=C(C)C was run?
Its IC50 is 5.8 µM.

COc1c(O)cc([C@@H]2CC(=O)c3c(O)c(C)c(OC)c(C)c3O2)cc1O was tested. Which IC50 did it give?
The IC50 was greater than 10 µM.

How did the IC50 turn out when C[C@@H]1CC[C@H]2[C@@H](C)C(=O)O[C@@H]3O[C@@]4(C)CC[C@@H]1[C@]32OO4 [ARTEMISININ] was run?
The IC50 was 0.012 µM.
